Data reported in article PMC6429159, “Evolution and Biological Evaluation of Matrinic Derivatives with Amantadine Fragments As New Anti-Influenza Virus Agents” (Molecules, 2019).
Structures can show the parent of a compound that is named as a salt. Where two headings read alike, the source gives them in different places.

Assays:
[1] = system: influenza virus A/hanfang/359/95 (H3N2); experiment: organism not typed; assay type: cell-based; settings: 50% virus-inhibitory concentration after 40 hr at 37 °C, MDCK cells; – = no anti-H3N2 activity at the maximum non-toxic concentration
[2] = system: influenza virus A/Fort Monmouth/1/1947 (H1N1); experiment: organism not typed; assay type: cell-based; settings: MDCK cells, CPE
MDCK cells [3] = settings: lead 1, value of previous study; cited from earlier work
MDCK cells [4] = experiment: Cytotoxicity assay; assay type: cell-based; settings: 50% cytotoxic concentration, 48 hr
Experimental: A three-fold dilution compound was added to cell monolayer, and the cells continued to be cultivated for 48 hr, and then the CPE was recorded. The TC50 value of each compound was calculated by the methods of Reed & Muench.

[5] = system: H3N2 virus non-structural protein 1 (NS1); experiment: Anti-H3N2 activity at the protein level, NS1 Western blot; assay type: cell-based, Influenza A virus; settings: 40 μM, MDCK cells, MOI 0.003, 24 hr
IAV M2 = assay type: cell-based, Influenza A virus
[6] = Stability assay in whole blood; assay type: in vitro ADME, SD rats; settings: 37 °C; for stability in whole blood (in words): in vitro
Experimental: The results hinted that 9f owned a good PK stability profile in blood, and it was chosen for the next investigation.
The fresh bloods were collected on the day of experiment from SD rats, and pre-warmed in a water bath at 37 °C. A concentration of 10 mM tested compound or enalapril stock solutions were prepared in DMSO, and then diluted with 45% MeOH/H2O to achieve […] dosing solutions. […] At the end of incubation, for each sample, […] water and […] of stop solution (200 ng·mL^−1 tolbutamide plus 20 ng·mL^−1 buspirone in acetonitrile) were immediately added to precipitate the protein, and centrifuged at 4000 rpm for 20 min. An aliquot of supernatant ([…]) was then extracted, mixed with […] H2O, and then shaken at 800 rpm for about 10 min before being submitted for a liquid chromatography-tandem mass […] (LC-MS/MS) analysis. The experiment was repeated twice.
Figure 3 The stability assessments of key compounds 9f and 9j in whole blood. […]

Kunming mice = settings: for weight loss and behaviour: oral single dose 125, 250, 500 mg·kg^–1, seven days, compared to control; for median lethal dose (LD50): oral single dose, Kunming mice, monitored seven days
Experimental: The acute toxicity tests of the two key compounds 9f and 9j were performed in Kunming mice. Each compound was given orally in a single-dosing experiment at 125, 250, and 500 mg·kg^–1, respectively. Then, the mice were closely monitored for seven days.
Female Kunming mice with weights of 20.0 (±1.0 g) were fed with regular rodent chow, and housed in an air-conditioned room. The mice were randomly divided into different groups with 10 mice each. Each compound was given orally in a single-dosing experiment at 125, 250, or 500 mg·kg^−1, respectively. The mice were closely monitored for seven days. Body weight, as well as survival, was monitored.

Row | SMILES | IC50 [1] [µM] | IC50 [2] [µM] | TC50 (MDCK cells [4]) [µM] | stability in whole blood (in words) [6] | further results
1 | NC12CC3CC(CC(C3)C1)C2 [AH, amantadine hydrochloride, reference compound] | 3.25 ± 0.5 | 2.73 | – | – | –
2 | CCCCC1C2CCCN3CCCC(CN1Cc1ccc(C(=O)O)cc1)C23 (centres unmarked) [Compound 1, 12N-p-carboxybenzyl matrinic butane] | – | – | – | – | TC50 (MDCK cells [3]): >540.5 µM
3 | O=C(OCCCC[C@@H]1[C@H]2CCCN3CCC[C@@H](CN1S(=O)(=O)c1ccc(C(F)(F)F)cc1)[C@@H]23)C12CC3CC(CC(Br)(C3)C1)C2 [Compound 9c, 12N-p-Trifluoromethlybenzenesulfonylmatrinicbutyl-3’-bromoadamantane-1’-carboxylate hydrochloride] | 8.2 ± 2.07 | 27.5 ± 0.1 | 73.6 ± 4.3 | – | –
4 | O=C(OCCCC[C@@H]1[C@H]2CCCN3CCC[C@@H](CN1S(=O)(=O)c1cccc(C(F)(F)F)c1)[C@@H]23)C12CC3CC(CC(C3)C1)C2 [Compound 9d, 12N-m-Trifluoromethlybenzenesulfonyl matrinic butyl adamantine-1’-carboxylate hydrochloride] | 5.9 ± 0.9 | 22.4 ± 1.3 | 54.9 ± 3.5 | – | –
5 | O=C(OCCCC[C@@H]1[C@H]2CCCN3CCC[C@@H](CN1S(=O)(=O)c1cccc(C(F)(F)F)c1)[C@@H]23)C12CC3CC(CC(Br)(C3)C1)C2 [Compound 9f, 12N-m-Trifluoromethlybenzenesulfonylmatrinicbutyl-3’-bromoadamantane-1’-carboxylate hydrochloride] | 7.2 ± 1.1 | 23.4 ± 1.5 | 75.7 ± 14.2 | high stability profile | H3N2 virus NS1 level [5]: significantly reduce; M2 level (IAV M2): significantly reduce; remaining rate of protype in whole blood ([6]; 60 min): 100%; remaining rate of protype in whole blood ([6]; 120 min): 97.9%; weight loss and behaviour (Kunming mice): neither significant weight loss nor behavioral abnormality; median lethal dose (LD50) (Kunming mice): higher than 500 mg·kg^–1
6 | O=C(CC1CC2CCC1C2)OCCCC[C@@H]1[C@H]2CCCN3CCC[C@@H](CN1S(=O)(=O)c1cccc(C(F)(F)F)c1)[C@@H]23 (some centres unmarked) [Compound 9j, 12N-m-Trifluoromethlybenzenesulfonyl matrinic butyl-2’-norbornane acetate hydrochloride] | 10.2 ± 1.8 | 22.6 ± 1.3 | 110.3 ± 18.5 | poor stability | H3N2 virus NS1 level [5]: significantly reduce; remaining rate of protype in whole blood ([6]; 30 min): 47.7%; remaining rate of protype in whole blood ([6]; 120 min): 1.3%; weight loss and behaviour (Kunming mice): neither significant weight loss nor behavioral abnormality; median lethal dose (LD50) (Kunming mice): higher than 500 mg·kg^–1
7 | CCOC(=O)[C@H](CCc1ccccc1)N[C@@H](C)C(=O)N1CCC[C@H]1C(=O)O [enalapril, (S)-N-[1-(ethoxycarbonyl)-3-phenylpropyl]-Ala-Pro maleate, reference compound] | – | – | – | hydrolyzed quickly | –
